What is called melting point is the temperature, or range, at which the solid turns liquid.

This note sets out measurements from US7112590B2, “Thrombin inhibitors” (LEK Pharmaceuticals d.d., priority 2000, dated 2006).

`Cl.Cl.Nc1ncc2c(n1)CCC(CNC(=O)[C@@H]1CCCN1C(=O)[C@H](N)C(c1ccccc1)c1ccccc1)C2` (stereo partly shown) gave a melting point of 166 to 168 °C.
`CC(C)(C)OC(=O)N[C@H](Cc1ccccc1)C(=O)N1CCC[C@H]1C(=O)NC1CCc2n[nH]cc2C1` (stereo partly drawn) [Example 10, tert-Butyl (1R)-1-benzyl-2-oxo-2-{(2S)-2-[(4,5,6,7-tetrahydro-2H-indazol-5-ylamino)carbonyl]pyrrolidinyl}ethylcarbamate] returned a melting point of 108 to 110 °C.
Compound `C[C@H](NC(=O)[C@@H](Cc1ccccc1)NS(=O)(=O)Cc1ccccc1)C(=O)NC1CCc2nc(N)sc2C1` (stereo partly drawn) [Example 32, (2R)-N-{(1S)-2-[(2-Amino-4,5,6,7-tetrahydro-1,3-benzothiazol-6-yl)amino]-1-methyl-2-oxoethyl}-2-[(benzylsulfonyl)amino]-3-phenylpropanamide] came in with a melting point of 122 to 125 °C.
In turn, `Nc1nc2c(s1)CC(NC(=O)[C@@H]1CCCN1C(=O)CNC(c1ccccc1)(c1ccccc1)c1ccccc1)CC2` (stereo partly drawn) [Example 33, (2S)-N-(2-Amino-4,5,6,7-tetrahydro-1,3-benzothiazol-6-yl)-1-[2-(tritylamino)acetyl]-2-pyrrolidinecarboxamide] registered a melting point of 125 to 128 °C.
`CC(C)(C)OC(=O)N[C@@H](C(=O)N1CCC[C@H]1C(=O)NCC1CCc2n[nH]cc2C1)C(c1ccccc1)c1ccccc1` (stereo partly drawn) [Example 64, tert-Butyl (1R)-1-benzhydryl-2-oxo-2-((2S)-2-{[(4,5,6,7-tetrahydro-2H-indazol-5-ylmethyl)amino]carbonyl}pyrrolidinyl)ethylcarbamate] yielded a melting point of 113 to 116 °C.
`O=C(NC1CCc2n[nH]cc2C1)[C@@H]1CCCN1C(=O)[C@@H](Cc1ccccc1)NS(=O)(=O)Cc1ccccc1` (stereo partly drawn) [Example 9, (2S)-1-{(2R)-2-[(Benzylsulfonyl)amino]-3-phenylpropanoyl}-N-(4,5,6,7-tetrahydro-2H-indazol-5-yl)-2-pyrrolidinecarboxamide]: the melting point is 114 to 116 °C.
`Cl.Cl.Nc1nc2c(s1)CC(NC(=O)[C@@H]1CCCN1C(=O)[C@@H](N)C(c1ccccc1)c1ccccc1)CC2` (stereo partly shown) yielded a melting point of 155 to 158 °C.
In the case of `Cl.Cl.Nc1ncc2c(n1)CCC(NC(=O)[C@@H]1CCCN1C(=O)[C@H](N)C(c1ccccc1)c1ccccc1)C2` (stereo partly shown) it was 199 to 202 °C.
For `CC(C)(C)OC(=O)N[C@@H](C(=O)N1CCC[C@H]1C(=O)NC1CCc2nc(N)ncc2C1)C(c1ccccc1)c1ccccc1` (stereo partly drawn) [Example 23, tert-Butyl (1R)-2-((2S)-2-{[(2-amino-5,6,7,8-tetrahydro-6-quinazolinyl)amino]carbonyl}pyrrolidinyl)-1-benzhydryl-2-oxoethylcarbamate], the melting point was 128 to 131 °C.
`O=C(NC1CCc2c[nH]cc2C1)[C@@H]1CCCN1C(=O)[C@@H](CC1CCCCC1)NS(=O)(=O)Cc1ccccc1` (stereo partly drawn) [Example 63, (2S)-1-{(2R)-2-[(Benzylsulfonyl)amino]-3-cyclohexylpropanoyl}-N-(4,5,6,7-tetrahydro-2H-isoindol-5-yl)-2-pyrrolidinecarboxamide] had a melting point of 106 to 109 °C.
`Cl.Cl.O=C(O)CN[C@H](CC1CCCCC1)C(=O)N1CCC[C@H]1C(=O)NCC1CCc2n[nH]cc2C1` (stereo partly shown) gave a melting point of 144 to 147 °C.
As for `Nc1ncc2c(n1)CCC(CNC(=O)[C@@H]1CCCN1C(=O)[C@@H](CC1CCCCC1)NS(=O)(=O)Cc1ccccc1)C2` (stereo partly drawn) [Example 57, (2S)-N-[(2-Amino-5,6,7,8-tetrahydro-6-quinazolinyl)methyl]-1-{(2R)-2-[(benzylsulfonyl)amino]-3-cyclohexylpropanoyl}-2-pyrrolidinecarboxamide], the melting point is 118 to 121 °C.
In the case of `Cl.Cl.N[C@H](C(=O)N1CCC[C@H]1C(=O)NC1CCc2n[nH]cc2C1)C(c1ccccc1)c1ccccc1` (stereo partly shown) it was 195 to 198 °C; in that of `Nc1nc2ccc(NC(=O)CNC(=O)[C@@H](Cc3ccccc3)NS(=O)(=O)Cc3ccccc3)cc2s1` [Example 39, (2R)-N-{2-[(2-Amino-1,3-benzothiazol-6-yl)amino]-2-oxoethyl}-2-[(benzylsulfonyl)amino]-3-phenylpropanamide], 127 to 130 °C; in that of `CC(C)(C)OC(=O)N[C@H](Cc1ccccc1)C(=O)N1CCC[C@H]1C(=O)NC1CCc2nc(N)sc2C1` (stereo partly drawn) [Example 25, tert-Butyl (1R)-2-((2S)-2-{[(2-amino-4,5,6,7-tetrahydro-1,3-benzothiazol-6-yl)amino]carbonyl}pyrrolidinyl)-1-benzyl-2oxoethylcarbamate], 120 to 123 °C.
As for `CC(C)(C)OC(=O)CN(C(=O)OC(C)(C)C)[C@H](CC1CCCCC1)C(=O)N1CCC[C@H]1C(=O)NC1CCc2nc(N)sc2C1` (stereo partly drawn) [Example 70, tert-Butyl 2-[[(1R)-2-((2S)-2-{[(2-amino-4,5,6,7-tetrahydro-1,3-benzothiazol-6-yl)amino]carbonyl}pyrrolidinyl)-1-(cyclohexylmethyl)-2-oxoethyl](tert-butoxycarbonyl)amino]acetate], the melting point lay in the range of 95 to 101 °C.
On to `Cl.Cl.N[C@H](Cc1ccc(Cl)c(Cl)c1)C(=O)N1CCC[C@H]1C(=O)NC1CCc2n[nH]cc2C1` (stereo partly shown), for which the melting point is 199 to 202 °C.
To `Cl.Cl.Nc1nc2c(s1)CC(NC(=O)[C@@H]1CCCN1C(=O)[C@H](N)Cc1ccccc1)CC2` (stereo partly shown) belongs 225 to 228 °C; to `CC(C)(C)OC(=O)N[C@H](C(=O)N1CCC[C@H]1C(=O)NC1CCc2nc(N)ncc2C1)C(c1ccccc1)c1ccccc1` (stereo partly drawn) [Example 13, tert-Butyl (1S)-2-((2S)-2-{[(2-amino-5,6,7,8-tetrahydro-6-quinazolinyl)amino]carbonyl}pyrrolidinyl)-1-benzhydryl-2-oxoethylcarbamate], 127 to 130 °C; to `Cl.Cl.Nc1nc2c(s1)CC(NC(=O)[C@@H]1CCCN1C(=O)[C@H](N)Cc1ccc(Cl)c(Cl)c1)CC2` (stereo partly shown), 166 to 169 °C.
To `CC(C)(C)OC(=O)N[C@H](Cc1ccc(Cl)c(Cl)c1)C(=O)N1CCC[C@H]1C(=O)NC1CCc2nc(N)sc2C1` (stereo partly drawn) [Example 34, tert-Butyl (1R)-2-((2S)-2-{[(2-amino-4,5,6,7-tetrahydro-1,3-benzothiazol-6-yl)amino]carbonyl}pyrrolidinyl)-1-(3,4-dichlorobenzyl)-2-oxoethylcarbamate] belongs 116 to 119 °C; to `Cl.Cl.N[C@H](Cc1ccccc1)C(=O)N1CCC[C@H]1C(=O)NC1CCc2n[nH]cc2C1` (stereo partly shown), 203 to 206 °C.
To `Nc1nc2c(s1)CC(NC(=O)[C@@H]1CCCN1C(=O)[C@@H](Cc1ccccc1)NS(=O)(=O)Cc1ccccc1)CC2` (stereo partly drawn) [Example 27, (2S)-N-(2-amino-4,5,6,7-tetrahydro-1,3-benzothiazol-6-yl)-1-{(2R)-2-[(benzylsulfonyl)amino]-3-phenylpropanoyl}-2-pyrrolidinecarboxamide] belongs 126 to 129 °C.
Compound `Cl.Cl.Nc1ncc2c(n1)CCC(NC(=O)[C@@H]1CCCN1C(=O)[C@H](N)Cc1ccc(Cl)c(Cl)c1)C2` (stereo partly shown) registered a melting point of 201 to 204 °C.
Regarding `O=C(NCC1CCc2n[nH]cc2C1)[C@@H]1CCCN1C(=O)[C@@H](CC1CCCCC1)NS(=O)(=O)Cc1ccccc1` (stereo partly drawn) [Example 58, (2S)-1-{(2R)-2-[(Benzylsulfonyl)amino]-3-cyclohexylpropanoyl}-N-(4,5,6,7-tetrahydro-2H-indazol-5-ylmethyl)-2-pyrrolidinecarboxamide], the melting point fell in the range of 100 to 103 °C.
